Our source for the IC50 values is paper PMC4345494, “Cheaper faster drug development validated by the repositioning of drugs against neglected tropical diseases” (Journal of the Royal Society Interface, 2015).

The test has as its target P. vivax DHFR (dihydrofolate reductase) (Plasmodium vivax, UniProt O02604). In words: DHFR enzyme inhibition assay (supported by growth assay of yeast expressing PvDHFR). The format is biochemical.

P. vivax DHFR (dihydrofolate reductase), sequence (O02604 1-237): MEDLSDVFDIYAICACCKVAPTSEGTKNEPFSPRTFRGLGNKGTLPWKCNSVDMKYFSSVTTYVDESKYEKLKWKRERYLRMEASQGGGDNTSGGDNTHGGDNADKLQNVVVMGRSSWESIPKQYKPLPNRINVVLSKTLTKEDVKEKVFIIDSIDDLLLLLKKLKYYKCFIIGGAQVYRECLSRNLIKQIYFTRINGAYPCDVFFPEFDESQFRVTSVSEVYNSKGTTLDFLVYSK

`CO[C@@H]1[C@H](OC(=O)NC(=O)CCl)CC[C@]2(CO2)[C@H]1[C@@]1(C)O[C@@H]1CC=C(C)C` [TNP-470] came in with an IC50 of 160 nM.

By IC50 is commonly meant the midpoint of a concentration-inhibition curve. A high value points to weaker potency.
